Here are results for 2 molecules from ChEMBL document CHEMBL5584239, “Discovery of novel quinoline scaffold selective estrogen receptor degraders (SERDs) for treatment of ER positive breast cancer with enhanced antiproliferative bioactivity through immunogenic cell death (ICD) effects” (Eur J Med Chem, 2024).

The source made the active and inactive calls. The rule behind the calls is not given here.

Data set [1] deals with MCF7. Nature of the data set: Antiproliferative activity against human MCF7 cells incubated for 5 days by MTT assay. It counts as functional, cell-based. The following applies: MCF7, 120 h. (Formazan colour is commonly taken as a measure of viable cells.)
Another data set deals with Ishikawa. Nature of the data set: Antiproliferative activity against human Ishikawa cells at 20 uM incubated for 3 days by MTT assay relative to control. The note with it: 72 h, time 3 day. Format: functional.
Data set [2] concerns the target T1, Estrogen receptor (Homo sapiens) (UniProt P03372).
T1 sequence (whole entry): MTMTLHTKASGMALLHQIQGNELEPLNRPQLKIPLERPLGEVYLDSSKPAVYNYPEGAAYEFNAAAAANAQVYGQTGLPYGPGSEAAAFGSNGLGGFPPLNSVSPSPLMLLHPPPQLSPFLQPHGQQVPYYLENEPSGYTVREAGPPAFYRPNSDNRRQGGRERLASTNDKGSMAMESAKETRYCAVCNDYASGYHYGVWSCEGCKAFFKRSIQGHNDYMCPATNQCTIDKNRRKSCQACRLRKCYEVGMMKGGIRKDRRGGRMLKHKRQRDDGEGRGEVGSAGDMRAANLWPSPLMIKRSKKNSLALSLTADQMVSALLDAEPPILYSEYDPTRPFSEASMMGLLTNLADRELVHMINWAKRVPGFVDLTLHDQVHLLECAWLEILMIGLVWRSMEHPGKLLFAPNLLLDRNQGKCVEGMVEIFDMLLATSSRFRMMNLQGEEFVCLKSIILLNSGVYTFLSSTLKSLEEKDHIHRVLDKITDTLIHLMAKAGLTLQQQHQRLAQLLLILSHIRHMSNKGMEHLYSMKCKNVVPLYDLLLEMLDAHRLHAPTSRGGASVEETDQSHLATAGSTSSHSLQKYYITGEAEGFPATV
The data set can be described thus: Induction of estrogen receptor degradation in human MCF7 cells incubated for 24 hrs by Western blot analysis. Format: cell-based. The following applies: dose 0.001-10 µM. (A western blot detects proteins with antibodies after separation by electrophoresis.)

Data set [3] has as its target T1, Estrogen receptor (Homo sapiens). The data set can be described thus: Induction of estrogen receptor degradation in MG-132-treated human MCF7 cells at 10 uM incubated for 4 to 6 hrs by Western blot analysis. The following applies: time 4-6 hrs. Format: cell-based.
Data set [4] has the same target. The data set can be described thus: Induction of estrogen receptor degradation in human MCF7 cells at 10 uM by fluorescence microscopy. Format: cell-based.
The target is the same in data set [5]. The data set can be described thus: Induction of estrogen receptor degradation in estradiol-stimulated human MCF7 cells assessed as decrease in PGR mRNA level incubated for 24 hrs by RT-qPCR analysis. The following applies: dose 1-10 µM. Format: cell-based. In general terms: Quantitative PCR measures a nucleic acid by following its amplification.
Data set [6] has the same target. The data set can be described thus: Induction of estrogen receptor degradation in estradiol-stimulated human MCF7 cells assessed as decrease in GREB1 mRNA level incubated for 24 hrs by RT-qPCR analysis. It counts as cell-based. The following applies: dose 1-10 µM.
For data set [7] the target is unchanged. Nature of the data set: Induction of estrogen receptor degradation in estradiol-stimulated human MCF7 cells assessed as decrease in TFF1 mRNA level incubated for 24 hrs by RT-qPCR analysis. It counts as cell-based. The following applies: dose 1-10 µM.
For data set [8] the target is unchanged. The data set can be described thus: Induction of estrogen receptor degradation in human MCF7 cells expressing ERE-luciferase at 10 uM incubated for 24 hrs by luminescence based analysis. It counts as cell-based.
For data set [9], the system named is MCF7. The data set can be described thus: Synergistic antiproliferative activity against human MCF7 cells at 0.1 to 10000 nM incubated for 5 days in presence of Ribociclib by MTT assay. Format: functional, cell-based. The following applies: dose 0.1-10000 nM, time 5.0 day.
Data set [10] concerns MCF7. The data set can be described thus: Induction of cell cycle arrest at G0/G1 phase in human MCF7 cells at 10 uM incubated for 24 hrs by PI/RNase staining based flow cytometry (reference value: 53.5 +/- 1.96 %). Format: functional.
Data set [11] concerns MCF7. The data set can be described thus: Induction of ROS production in human MCF7 cells incubated for 3 to 24 hrs by immunofluorescence analysis. It counts as functional, cell-based. The note with it: time 3-24 hrs.
Data set [12] concerns MCF7. The data set can be described thus: Induction of ROS production in human MCF7 cells measured after 6 to 24 hrs by flow cytometry. It counts as functional, cell-based. The note with it: time 6-24 hrs.
The test system of data set [13] is MCF7. The data set can be described thus: Induction of endoplasmic reticulum stress effect in human MCF7 cells assessed as change in calnexin level at 10 uM incubated for 3 to 24 hrs by Western blot analysis. The note with it: time 3-24 hrs. Format: functional, cell-based.
Data set [14] relates to MCF7. Nature of the data set: Induction of endoplasmic reticulum stress effect in human MCF7 cells assessed as change in GRP78 level at 10 uM incubated for 3 to 24 hrs by Western blot analysis. It counts as functional, cell-based. The following applies: time 3-24 hrs.
For data set [15], the system named is MCF7. The data set can be described thus: Induction of endoplasmic reticulum stress effect in human MCF7 cells assessed as change in ATF4 level at 10 uM incubated for 3 to 24 hrs by Western blot analysis. The note with it: time 3-24 hrs. It counts as functional, cell-based.
For data set [16], the system named is MCF7. Nature of the data set: Induction of endoplasmic reticulum stress effect in human MCF7 cells assessed as change in EIF-2alpha level at 10 uM incubated for 3 to 24 hrs by Western blot analysis. Format: functional, cell-based. The following applies: time 3-24 hrs.
The subject of data set [17] is MCF7. Nature of the data set: Induction of endoplasmic reticulum stress effect in human MCF7 cells assessed as change in pEIF-2alpha level at 10 uM incubated for 3 to 24 hrs by Western blot analysis. It counts as functional, cell-based. The following applies: time 3-24 hrs.
Data set [18] has as its system MCF7. Nature of the data set: Induction of endoplasmic reticulum stress effect in human MCF7 cells assessed as change in CHOP level at 10 uM incubated for 3 to 24 hrs by Western blot analysis. The note with it: time 3-24 hrs. It counts as functional, cell-based.
Data set [19] concerns MCF7. The data set can be described thus: Induction of endoplasmic reticulum stress effect in human MCF7 cells assessed as change in calnexin level at 10 uM incubated for 24 hrs by immunofluorescence based analysis. It counts as functional, cell-based.
The subject of data set [20] is MCF7. The data set can be described thus: Induction of endoplasmic reticulum stress effect in human MCF7 cells assessed as change in CHOP level at 10 uM incubated for 24 hrs by immunofluorescence based analysis. Format: functional, cell-based.
In data set [21] the test system is MCF7. The data set can be described thus: Induction of immunogenic cell death in human MCF7 cells assessed as CRT translocation at 10 uM by Western blot analysis. Format: functional, cell-based.
The test system of data set [22] is MCF7. Nature of the data set: Induction of immunogenic cell death in human MCF7 cells assessed as CRT translocation at 10 uM by FITC staining based flow cytometry. Format: functional.
The test system of data set [23] is MCF7. Nature of the data set: Induction of immunogenic cell death in human MCF7 cells assessed as CRT translocation at 10 uM by fluorescence microscopy. It counts as functional, cell-based.
For data set [24], the system named is MCF7. The data set can be described thus: Induction of immunogenic cell death in human MCF7 cells assessed as HSP90 exposure at 10 uM by Western blot analysis. Format: functional, cell-based.
In data set [25] the test system is MCF7. Nature of the data set: Induction of immunogenic cell death in human MCF7 cells assessed as HMGB1 release from nucleus at 10 uM by Western blot analysis. Format: functional, cell-based.
The test system of data set [26] is MCF7. The data set can be described thus: Induction of immunogenic cell death in human MCF7 cells assessed as HMGB1 release from nucleus at 10 uM by FITC staining based flow cytometry. It counts as functional.
Data set [27] deals with MCF7. The data set can be described thus: Induction of immunogenic cell death in human MCF7 cells assessed as HMGB1 release from nucleus at 10 uM by fluorescence microscopy. It counts as functional, cell-based.
The test system of data set [28] is MCF7. Nature of the data set: Induction of immunogenic cell death in human MCF7 cells assessed as ATP release […] at 10 uM. Format: functional, cell-based.
Data set [29] deals with MCF7. Nature of the data set: Antitumor activity against human MCF7 cells xenografted in nude mouse model assessed as tumor growth inhibition at 60 mg/kg, po administered daily via gavage for 30 days. It counts as functional, organism-based. The note with it: time 30.0 day.
Data set [30] has as its system MCF7. Nature of the data set: Antitumor activity against human MCF7 cells xenografted in nude mouse model at 60 mg/kg, po administered daily via gavage for 30 days in presence of ribociclib. It counts as functional, organism-based. The following applies: time 30.0 day.
The nature of data set [31]: Toxicity in nude mouse model xenografted with human MCF7 cells assessed as body weight loss at 60 mg/kg, po administered daily via gavage for 30 days. It counts as organism-based. The following applies: in vivo, 720 h, time 30 day.
The nature of data set [32]: Toxicity in nude mouse model xenografted with human MCF7 cells assessed as morphological change in heart at 60 mg/kg, po administered daily via gavage for 30 days by H and E staining based analysis. Format: organism-based. The note with it: in vivo, 720 h, time 30 day.
A short description of data set [33]: Toxicity in nude mouse model xenografted with human MCF7 cells assessed as morphological change in liver at 60 mg/kg, po administered daily via gavage for 30 days by H and E staining based analysis. The following applies: in vivo, 720 h, time 30 day. It counts as organism-based.
The nature of data set [34]: Toxicity in nude mouse model xenografted with human MCF7 cells assessed as morphological change in spleen at 60 mg/kg, po administered daily via gavage for 30 days by H and E staining based analysis. Format: organism-based. The following applies: in vivo, 720 h, time 30 day.
Data set [35] can be described thus: Toxicity in nude mouse model xenografted with human MCF7 cells assessed as morphological change in kidney at 60 mg/kg, po administered daily via gavage for 30 days by H and E staining based analysis. It counts as organism-based. The following applies: in vivo, 720 h, time 30 day.
Data set [36] relates to MCF7. Nature of the data set: Antitumor activity against human MCF7 cells xenografted in nude mouse model assessed as reduction in Ki67 level at 60 mg/kg, po administered daily via gavage for 30 days in presence of ribociclib by IHC analysis. Format: functional, organism-based. The note with it: time 30.0 day.
Data set [37] concerns MCF7. The data set can be described thus: Antitumor activity against human MCF7 cells xenografted in nude mouse model assessed as reduction in ER level at 60 mg/kg, po administered daily via gavage for 30 days in presence of ribociclib by IHC analysis. It counts as functional, organism-based. The note with it: time 30.0 day.
Data set [38] concerns MCF7. Nature of the data set: Antitumor activity against human MCF7 cells xenografted in nude mouse model assessed as reduction in PR level at 60 mg/kg, po administered daily via gavage for 30 days in presence of ribociclib by IHC analysis. It counts as functional, organism-based. The following applies: time 30.0 day.
The subject of data set [39] is Uterus. Nature of the data set: Effect on immature Sprague-Dawley rat uterus assessed as reduction in uterine wet weight at 60 mg/kg, po qd for 2 days by H and E staining based analysis. The note with it: time 2.0 day. Format: functional, organism-based.
In data set [40] the test system is Uterus. Nature of the data set: Effect on immature Sprague-Dawley rat uterus assessed as reduction in uterine wet weight at 2 mg/kg, sc qd for 2 days by H and E staining based analysis. The following applies: time 2.0 day. It counts as functional, organism-based.

A word on the IC50: it is the concentration that inhibits the measured activity by half. A high value points to weaker potency in that assay. For orientation: inhibition means the relative decrease from the control value, in per cent.

In the data set on MCF7 [1], `CCc1cc(/C=C/C(=O)O)ccc1Oc1c(C(=O)c2ccccc2CC)cnc2cc(O)ccc12` showed a half-maximal inhibitory concentration (IC50) of 510 nM. In addition, the inhibition at 20 µM with Ishikawa is 13.2%. In addition, the Activity entry in [2] was “Dose-Dependent Effect”; in data set [5], “Dose-Dependent Effect”; in [6] it was “Dose-Dependent Effect”; in data set [7], “Dose-Dependent Effect”; with MCF7 [10], 64%; in data set [31], “Non-Toxic”. The Activity result in data set [32], in [33], in data set [34] and in data set [35] was “Non-Toxic” each time. The result (in data set [3]; in the data set on MCF7 [11]; in the data set on MCF7 [12]; in the data set with Uterus [39]) was inactive. Moreover, the result (in data set [4]; in [8]; in the data set on MCF7 [9]; in the data set on MCF7 [13]; in the data set on MCF7 [14]; with MCF7 [15]) was Active. For the same molecule, the result in the data set with MCF7 [16], in the data set with MCF7 [17], in the data set with MCF7 [18], in the data set on MCF7 [19], with MCF7 [20] and in the data set with MCF7 [21] was Active. Moreover, the outcome with MCF7 [22], with MCF7 [23], with MCF7 [24], in the data set with MCF7 [25], with MCF7 [26] and with MCF7 [27] was Active. The outcome in the data set on MCF7 [28], with MCF7 [30], in the data set with MCF7 [36], with MCF7 [37] and in the data set on MCF7 [38] was Active. The inhibition result with MCF7 [29] is “Active”.

In turn, `C[C@]12CC[C@@H]3c4ccc(O)cc4C[C@@H](CCCCCCCCC[S+]([O-])CCCC(F)(F)C(F)(F)F)[C@H]3[C@@H]1CC[C@@H]2O` (stereo partly specified) [FULVESTRANT] registered an IC50 in the data set with MCF7 [1] of 0.646 nM. The inhibition at 20 µM in the data set with Ishikawa is -3.19%. The outcome in the data set with MCF7 [9] and in the data set with Uterus [40] was Active. Moreover, the Activity in the data set with MCF7 [10] stood at 66.83%. Also, in the data set on MCF7 [11], the result was inactive.
